Reference: ChEMBL document CHEMBL3621196, “Quinazolinedione SIRT6 inhibitors sensitize cancer cells to chemotherapeutics” (Eur J Med Chem, 2015)
Activity calls are given as the source filed them. The calls are words filed in the database; no cut-off is given here.

What was measured:
[1] = target: T1, NAD-dependent protein deacylase sirtuin-6 (Homo sapiens, UniProt Q8N6T7); assay: Inhibition of human recombinant SIRT6 deacetylase activity using Arg-His-Lys-Lys(AC)-AMC as a substrate by […] assay
[2] = target: T1, NAD-dependent protein deacylase sirtuin-6; assay: Inhibition of human SIRT6 deacetylase activity using Arg-His-Lys-Lys(AC)-AMC as a substrate by fluorescence assay
[3] = target: T1, NAD-dependent protein deacylase sirtuin-6; assay: Inhibition of SIRT6 in human BxPC-3 cells assessed as increase in radiolabelled glucose uptake at 100 uM after 18 hrs by fluorescence plate reader relative to control; type: cell-based
[4] = Cytotoxicity against human HEK293 cells assessed as cell viability using propidium iodide by flow cytometry; type: cell-based; settings: read-out: Activity
[5] = target: T1, NAD-dependent protein deacylase sirtuin-6; assay: Inhibition of human SIRT6 in […] Capan1 cells assessed as potentiation of NU1025-induced cytotoxicity by measuring cell viability at 100 uM after 7 days by CellTiter96 Aqueous1 assay; type: cell-based; settings: CAPAN-1
[6] = target: Protein Sirt6 (Rattus norvegicus) (UniProt A6K863); assay: Inhibition of SIRT6 in rat L6 cells assessed as increase in radiolabelled glucose uptake at 100 uM after 18 hrs by fluorescence plate reader relative to control; type: cell-based
[7] = target: T2, NAD-dependent protein deacetylase sirtuin-1 (Homo sapiens, UniProt Q96EB6); assay: Inhibition of human SIRT1 deacetylase activity using Arg-His-Lys-Lys(AC)-AMC as a substrate by fluorescence assay
T2 sequence (Q96EB6 whole entry): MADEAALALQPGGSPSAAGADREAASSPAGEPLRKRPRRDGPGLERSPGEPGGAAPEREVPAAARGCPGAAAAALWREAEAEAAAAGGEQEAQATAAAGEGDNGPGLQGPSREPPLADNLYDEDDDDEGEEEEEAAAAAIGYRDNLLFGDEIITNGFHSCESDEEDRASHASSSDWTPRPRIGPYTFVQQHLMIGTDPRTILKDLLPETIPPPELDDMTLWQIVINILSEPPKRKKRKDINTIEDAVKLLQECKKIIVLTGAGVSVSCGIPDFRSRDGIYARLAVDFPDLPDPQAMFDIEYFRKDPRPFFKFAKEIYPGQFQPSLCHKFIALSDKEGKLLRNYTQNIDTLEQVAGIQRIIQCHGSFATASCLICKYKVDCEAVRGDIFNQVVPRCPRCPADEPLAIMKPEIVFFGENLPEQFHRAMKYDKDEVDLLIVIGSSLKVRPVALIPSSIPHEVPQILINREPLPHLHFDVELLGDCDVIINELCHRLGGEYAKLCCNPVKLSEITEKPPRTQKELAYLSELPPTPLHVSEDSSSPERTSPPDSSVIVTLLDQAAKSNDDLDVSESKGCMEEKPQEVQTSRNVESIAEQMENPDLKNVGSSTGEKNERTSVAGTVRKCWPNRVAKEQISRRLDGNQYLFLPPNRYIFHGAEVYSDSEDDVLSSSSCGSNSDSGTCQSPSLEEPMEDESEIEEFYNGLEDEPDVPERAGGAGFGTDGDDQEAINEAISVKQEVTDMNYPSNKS

[8] = target: T1, NAD-dependent protein deacylase sirtuin-6; assay: Inhibition of SIRT6 in human PBMC assessed as inhibition of MLR-induced TNF alpha production at 100 uM after 3 days by ELISA
Homo sapiens [9] = species: Homo sapiens; assay: Selectivity ratio of IC50 for human SIRT1 to IC50 for human SIRT6
[10] = target: T3, NAD-dependent protein deacetylase sirtuin-2 (Homo sapiens, UniProt Q8IXJ6); assay: Inhibition of human SIRT2 deacetylase activity using Arg-His-Lys-Lys(AC)-AMC as a substrate by fluorescence assay
T3 sequence (Q8IXJ6 whole entry): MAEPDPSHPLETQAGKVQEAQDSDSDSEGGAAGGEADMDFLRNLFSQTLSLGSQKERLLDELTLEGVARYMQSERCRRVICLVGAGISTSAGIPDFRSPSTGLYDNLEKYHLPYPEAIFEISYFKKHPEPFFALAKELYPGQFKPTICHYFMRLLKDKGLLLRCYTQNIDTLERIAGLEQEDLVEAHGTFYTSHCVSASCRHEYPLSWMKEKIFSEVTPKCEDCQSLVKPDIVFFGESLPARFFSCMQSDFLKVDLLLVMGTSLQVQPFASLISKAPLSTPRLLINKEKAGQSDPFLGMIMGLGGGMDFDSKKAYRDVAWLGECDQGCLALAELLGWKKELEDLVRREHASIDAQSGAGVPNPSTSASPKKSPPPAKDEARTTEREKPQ

[11] = target: T1, NAD-dependent protein deacylase sirtuin-6; assay: Competitive inhibition of human recombinant SIRT6 deacetylase activity using NAD+ as a substrate at 50 uM by double-reciprocal plot analysis
[12] = target: Protein Sirt6 (Rattus norvegicus) (UniProt A6K863); assay: Inhibition of SIRT6 in rat L6 cells assessed as increase in 2-NBDG uptake at 100 uM after 18 hrs by fluorescence plate reader relative to control; type: cell-based
Homo sapiens [13] = species: Homo sapiens; assay: Selectivity ratio of IC50 for human SIRT2 to IC50 for human SIRT6
[14] = target: T1, NAD-dependent protein deacylase sirtuin-6; assay: Inhibition of SIRT6 in human BxPC3 cells assessed as potentiation of gemcitabine-induced cytotoxicity by measuring cell viability at 30 uM by CellTiter96 Aqueous1 assay; type: cell-based; settings: BXPC-3
[15] = target: T1, NAD-dependent protein deacylase sirtuin-6; assay: Inhibition of human SIRT6 in BRCA2-deficient Capan1 cells assessed as potentiation of olaparib-induced DNA damage by measuring cell viability at 100 uM after 7 days by CellTiter96 Aqueous1 assay; type: cell-based; settings: CAPAN-1
[16] = target: T1, NAD-dependent protein deacylase sirtuin-6; assay: Inhibition of SIRT6 in human PBMC assessed as inhibition of PHA-induced TNF alpha production at 100 uM after 3 days by ELISA
[17] = target: T1, NAD-dependent protein deacylase sirtuin-6; assay: Inhibition of SIRT6 in human BxPC-3 cells assessed as increase in H3K9 acetylation by immunoblotting assay relative to control; type: cell-based
[18] = target: T1, NAD-dependent protein deacylase sirtuin-6; assay: Inhibition of SIRT6 in human BxPC3 cells assessed as reduction in TNF alpha production by ELISA; type: cell-based; settings: BXPC-3, concentration not given here
[19] = Cytotoxicity against human BxPC3 cells assessed as cell viability at 30 uM after 72 hrs by CellTiter96 Aqueous1 assay; type: cell-based, BXPC-3; settings: bxpc-3, 72 h, 30 µM
[20] = target: T1, NAD-dependent protein deacylase sirtuin-6; assay: Competitive inhibition of human recombinant SIRT6 deacetylase activity using Arg-His-Lys-Lys(AC)-AMC as a substrate at 50 uM by double-reciprocal plot analysis

T1 sequence (Q8N6T7 whole entry): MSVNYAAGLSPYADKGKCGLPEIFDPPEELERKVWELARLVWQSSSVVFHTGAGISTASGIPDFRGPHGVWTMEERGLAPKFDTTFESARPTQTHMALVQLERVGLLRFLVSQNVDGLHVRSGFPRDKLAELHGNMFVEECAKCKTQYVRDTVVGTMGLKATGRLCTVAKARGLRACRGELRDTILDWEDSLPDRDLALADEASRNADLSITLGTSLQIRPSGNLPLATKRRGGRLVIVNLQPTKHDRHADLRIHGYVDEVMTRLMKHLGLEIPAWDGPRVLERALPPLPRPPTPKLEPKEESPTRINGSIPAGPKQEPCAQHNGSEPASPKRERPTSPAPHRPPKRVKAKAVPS
Protein Sirt6 (Rattus norvegicus), sequence (A6K863 as listed by the source): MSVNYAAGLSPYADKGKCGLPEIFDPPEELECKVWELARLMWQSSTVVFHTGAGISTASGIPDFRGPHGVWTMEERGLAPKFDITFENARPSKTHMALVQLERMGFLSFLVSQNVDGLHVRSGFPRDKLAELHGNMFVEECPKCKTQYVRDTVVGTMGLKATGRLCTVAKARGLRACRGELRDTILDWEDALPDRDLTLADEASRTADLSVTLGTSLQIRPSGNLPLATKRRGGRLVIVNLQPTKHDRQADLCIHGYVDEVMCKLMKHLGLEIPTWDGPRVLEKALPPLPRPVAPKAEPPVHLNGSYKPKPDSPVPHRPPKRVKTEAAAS

`O=c1[nH]c(=O)c2cc(S(=O)(=O)NC3CCN(Cc4ccccc4)C3)ccc2[nH]1` (configuration not stated) gave an IC50 [1] of 517 µM.
In the case of `O=C1CCc2cc(S(=O)(=O)Nc3ccc(Oc4cccnc4)cc3)ccc2N1`, the IC50 [2] is reported as 270 µM and the IC50 [1] is reported as 275 µM.
Compound `O=c1[nH]c(=O)c2cc(S(=O)(=O)Nc3ccc(Oc4ccccc4)cc3)ccc2[nH]1` has an IC50 [1] of 127 µM.
In the case of `O=C1CCCN1c1ccc(S(=O)(=O)Nc2ccc(Oc3cccnc3)cc2)cc1`, the IC50 [2] is reported as 441 µM.
`O=S(=O)(Nc1ccc(Oc2cccnc2)cc1)c1ccccc1` gave an IC50 [1] of 300 µM.
With `O=c1[nH]c(=O)c2cc(S(=O)(=O)Nc3cccc(CCc4ccncc4)c3)ccc2[nH]1` the fold increase in glucose uptake [3] was 1.2 fold, the viability [4] was > 80% and the Activity [5] was “Active”. The fold increase in glucose uptake [6] was 2.8 fold, the IC50 [7] was 424 µM and the inhibition [8] was 27%. The IC50 [2] was 37 µM, the Ratio IC50 (Homo sapiens [9]) was 11.5 and the IC50 [10] was 85 µM. The inhibition [11] was “Active”, the fold increase in 2-NBDG uptake [12] was 1 fold and the Ratio IC50 (Homo sapiens [13]) was 2.3. For the same compound, the Activity [14] was “Active”, the Activity [15] was “Active” and the inhibition [16] was 44%. The fold increase in H3K9 acetylation [17] was 1.4 fold, the inhibition [18] was 72% and the Activity [19] was “Non-toxic”. For the same compound, the IC50 [1] was 55 µM and the inhibition [20] was “Active”.
In the case of `O=c1[nH]c(=O)c2cc(S(=O)(=O)Nc3ccc(Cn4ccnc4)cc3)ccc2[nH]1`, the fold increase in glucose uptake [3] is reported as 0.6 fold, the viability [4] is reported as > 80% and the Activity [5] is reported as “Active”. For the same compound, the fold increase in glucose uptake [6] was 0.8 fold, the IC50 [7] was 238 µM and the inhibition [8] was 21%. The IC50 [2] was 60 µM, the Ratio IC50 (Homo sapiens [9]) was 3.97 and the IC50 [10] was 159 µM. The fold increase in 2-NBDG uptake [12] was 0.7 fold, the Ratio IC50 (Homo sapiens [13]) was 2.65 and the Activity [14] was “Active”. It also gave an inhibition [16] of 31%, a fold increase in H3K9 acetylation [17] of 1.5 fold and an inhibition [18] of 25%. The Activity [19] was “Non-toxic”.
